According to patent US6472348B1, “Pyridone derivatives and herbicides” (Kumiai Chemical Industry Co., Ltd., priority 1996, dated 2002):

What was measured:
Format in all cases: in vivo
Design in all cases: scale not given here
[1] = test system: common lambsquarters (Ch); assay: Test Example 6: crop plant selectivity by upland field soil treatment (soybean), herbicidal effects; conditions: 21st day after application
How it was run: (§1)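 Soybean and weed seeds were sown in sand-filled pots and covered with soil, then given a pre-emergence soil application. Plants were grown on in a greenhouse, and herbicidal effect and crop phytotoxicity were scored against a set rating scale 21 days after application.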

green foxtail (Se) = assay: as above; conditions: 21st day after application
How it was run: as §1

China jute (Ab) [2] = assay: as above; conditions: 21st day after application
How it was run: as §1

slender amaranth (Am) [3] = assay: as above; conditions: 21st day after application
How it was run: as §1

pale smartweed (Po) [4] = assay: as above; conditions: 21st day after application
How it was run: as §1

slender amaranth (Am) [5] = assay: Test Example 3: herbicidal effects by upland field foliage treatment
How it was run: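 Test plants had been raised from seed for 2 weeks in a greenhouse, in soil-covered sand pots of 120 cm^2, and were returned there after spraying.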

[6] = test system: common lambsquarters (Ch); assay: Test Example 7: crop plant selectivity by upland field soil treatment (corn), herbicidal effects; conditions: 21st day after application
How it was run: (§2)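 Corn and weed seeds were sown in sand-filled pots and covered with soil. After application, plants were grown in a greenhouse, and herbicidal effect and crop phytotoxicity were scored against fixed rating standards on day 21.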

China jute (Ab) [7] = assay: as above; conditions: 21st day after application
How it was run: as §2

slender amaranth (Am) [8] = assay: as above; conditions: 21st day after application
How it was run: as §2

pale smartweed (Po) [9] = assay: as above; conditions: 21st day after application
How it was run: as §2

[10] = 100 g active ingredient per 10 ares, evaluated 14th day after treatment
[11] = 100 g of the active ingredient per 10 ares, evaluated on the 14th day after treatment

Structure (SMILES)	Herbicidal effects Ch ([1]; dose 1.6 g ai/10a)	Herbicidal effects Se (green foxtail (Se); dose 1.6 g ai/10a)	Herbicidal effects Ab (China jute (Ab) [2]; dose 1.6 g ai/10a)	Herbicidal effects Am (slender amaranth (Am) [3]; dose 1.6 g ai/10a)	Herbicidal effects Po (pale smartweed (Po) [4]; dose 1.6 g ai/10a)	Herbicidal effects Am (slender amaranth (Am) [5]; [10])	Herbicidal effects Am (slender amaranth (Am) [5]; [11])	Herbicidal effects Ch ([6]; dose 1.6 g ai/10a)	Herbicidal effects Ab (China jute (Ab) [7]; dose 1.6 g ai/10a)	Herbicidal effects Am (slender amaranth (Am) [8]; dose 1.6 g ai/10a)	Herbicidal effects Po (pale smartweed (Po) [9]; dose 1.6 g ai/10a)	Herbicidal effects Ch ([6]; dose 6.3 g ai/10a)	Herbicidal effects Ab (China jute (Ab) [7]; dose 6.3 g ai/10a)	Herbicidal effects Am (slender amaranth (Am) [8]; dose 6.3 g ai/10a)	Herbicidal effects Po (pale smartweed (Po) [9]; dose 6.3 g ai/10a)	Herbicidal effects Ch ([1]; dose 6.3 g ai/10a)	Herbicidal effects Se (green foxtail (Se); dose 6.3 g ai/10a)	Herbicidal effects Ab (China jute (Ab) [2]; dose 6.3 g ai/10a)	Herbicidal effects Am (slender amaranth (Am) [3]; dose 6.3 g ai/10a)	Herbicidal effects Po (pale smartweed (Po) [4]; dose 6.3 g ai/10a)
C#CC(C)Oc1cc(-c2cn(C)c(C(F)(F)F)cc2=O)c(F)cc1Cl (racemic) [Compound 6-10]	5	4	4	5	5	5														
COc1cc(-c2ccc(C(F)(F)F)n(C)c2=O)c(F)cc1Cl [1-15]	5	5	5	5	5		5	5	5	5	5									
C=CCOc1cc(-c2ccc(C(F)(F)F)n(C)c2=O)c(F)cc1Cl [1-16]	5	5	5	5	5		5	5	5	5	5	5	5	5	5					
C#CC(C)Oc1cc(-c2ccc(C(F)(F)F)n(C)c2=O)c(F)cc1Cl (stereo not drawn) [1-17]	5	5	5	5	5		5	5	5	5	5	5	4	5	5					
C#CCOc1cc(-c2ccc(C(F)(F)F)n(C)c2=O)c(F)cc1Cl [1-18]	5	5	5	5	5		5	5	5	5	5	5	5	5	5					
Cn1c(C(F)(F)F)ccc(-c2cc(OCC#N)c(Cl)cc2F)c1=O [1-25]							5					5	5	5	5	5	5	5	5	5
C#CCOc1cc(-c2ccc(C(F)(F)F)n(C)c2=O)c(Cl)cc1Cl [1-30]	5	5	5	5	5		5	5	5	5	5	5	5	5	5					
CC(C)Sc1cc(-c2ccc(C(F)(F)F)n(C)c2=O)c(F)cc1Cl [1-43]							5					5	4	5	5	5	5	4	5	5
C#CCSc1cc(-c2ccc(C(F)(F)F)n(C)c2=O)c(F)cc1Cl [1-44]							5					5	5	5	5	5	5	5	5	5
CCOC(=O)c1cc(-c2ccc(C(F)(F)F)n(C)c2=O)c(F)cc1Cl [1-65]	5	5	5	5	5		5	5	5	5	5	5	5	5	5	5	5	5	5	5
Cc1cc(-c2ccc(C(F)(F)F)n(C)c2=O)c(F)cc1Cl [1-90]	5	5	5	5	5		5	5	5	5	5	5	5	5	5	5	5	5	5	5
COCSc1cc(-c2ccc(C(F)(F)F)n(C)c2=O)c(F)cc1Cl [1-91]	5	5	5	5	5		5	5	5	5	5	5	5	5	5	5	5	5	5	5
C#CCOc1cc(-c2ccc(C(F)(F)F)n(N)c2=O)c(F)cc1Cl [1-178]							5	5	5	5	5									
COc1cc(-c2ccc(C(F)(F)F)n(N)c2=O)c(F)cc1Cl [1-179]							5					5	5	5	5					
CCOCOc1cc(-c2ccc(C(F)(F)F)n(C)c2=O)c(F)cc1Cl [1-181]							5									5	5	5	5	5
C=CCN1C(=O)COc2cc(F)c(-c3ccc(C(F)(F)F)n(C)c3=O)cc21 [Compound 2-7]	5	5	5	5	5	5										5	5	5	5	5
C#CCN1C(=O)COc2cc(F)c(-c3cn(C)c(C(F)(F)F)cc3=O)cc21 [Compound 7-1]						5										5	5	5		5
C#CCN1C(=O)COc2cc(F)c(-c3ccc(C(F)(F)F)n(C)c3=O)cc21 [Compound No. 2-1, 3-[7-fluoro-2,3-dihydro-4-(2-propynyl)-1,4-benzoxazin-3-on-6-yl]-1-methyl-6-trifluoromethyl-2(1H)-pyridone]	5	5	5	5	5	5										5	5	5	5	5
Cn1cc(-c2cc(Oc3ccccc3)c(Cl)cc2F)c(=O)cc1C(F)(F)F [Compound No. 6-19, 5-(4-chloro-2-fluoro-5-phenoxyphenyl)-1-methyl-2-trifluoromethyl-4(1H)-pyridone]	3	5	3	5	5	5										5	5	5	5	5
